Measured values reported in paper PMC8951032, “Study of Biological Activities and ADMET-Related Properties of Novel Chlorinated N-arylcinnamamides” (International Journal of Molecular Sciences, 2022).
In brackets after ≈: the same amount, converted by molar mass. Where two headings read alike, the source gives them in different places.

Assays:
[1] = tested on: Mycobacterium marinum CAMP 5644; assay: In vitro antimycobacterial activity, broth dilution MIC; type: cell-based; settings: CAMP5644, 504 h
[2] = tested on: porcine monocyte-derived macrophages (MDM); assay: In vitro cell viability, CCK-8; type: cell-based; settings: Sus scrofa, Macrophage, 10% fetal bovine serum
Method: (§1) The effect of the compounds on viability of eukaryotic cells was evaluated on human leukemia cell line THP-1, human synovial cell line SW982, and isolated primary porcine monocytes-delivered macrophages (MDM). The general cytotoxic effect was studied on THP-1 cells in the serum-free medium (only THP-1 as the only cells used in this study are able to survive in serum-free medium). Most of the compounds had no cytotoxic effect on THP-1 cells. […] This could be caused by the direct interaction of such compounds with serum proteins or by the effect of mitogens, cytokines, and hormones present in the serum. Obviously, the full medium is closer to physiological conditions in living organisms, so it can be assumed that these compounds could be non-toxic there.
Porcine monocyte-derived macrophages (MDMs) were prepared, as described previously. Briefly, blood was collected from three-month-old pigs and peripheral blood mononuclear cells (PBMC) were isolated by gradient centrifugation (830× g, 40 min) using Histopaque-1077 (Sigma). CD14+ cells were isolated by positive magnetic bead selection with LS separation columns (Miltenyi Biotec, Bergisch Gladbach, Germany). Isolated monocytes were cultured in 96-well plates at a concentration of 1 × 10^5 cells per well in 0.2 mL of DMEM supplemented with 10% FBS and 1% antibiotics (Antibiotic Antimycotic Solution 100 × 10,000 units penicillin, 10 mg streptomycin, and 25 μg amphotericin B per mL; Sigma) and incubated for five days at 37 °C in 5% CO2 to differentiate into macrophages. Then, MDMs were cultured for 24 h with tested substances and the relative cell viability was determined by CCK-8 kit (Sigma) following manufacturer instructions.

[3] = tested on: vancomycin-resistant E. faecalis (VRE) 368; assay: In vitro antienterococcal activity, microtitration broth MIC; type: cell-based, Enterococcus faecalis
[4] = tested on: Mycobacterium smegmatis ATCC 700084; assay: In vitro antimycobacterial activity, broth dilution MIC; type: cell-based; settings: Mycolicibacterium smegmatis
[5] = tested on: S. aureus, MRSA, E. faecalis, VRE, M. smegmatis, M. marinum; assay: In vitro antimicrobial screening, all tested strains; type: cell-based; settings: antibacterial/antimycobacterial screening
[6] = tested on: vancomycin-resistant E. faecalis (VRE) 725B; assay: In vitro antienterococcal activity, microtitration broth MIC; type: cell-based, Enterococcus faecalis; settings: 24 h
[7] = tested on: human monocytic leukemia cell line THP-1; assay: In vitro cell viability, CCK-8; type: cell-based; settings: Homo sapiens, THP-1
Method: as §1
(§2) Human monocytic leukemia cell line THP-1 and human synovial cell line SW982 were purchased from the European Collection of Cell Cultures (ECACC, Salisbury, UK) and were used for determination of the influence of test compounds on cell viability, as described previously. These cell lines represent typical suspension and adherent cells, respectively. They were cultivated with test substances in the presence or absence of fetal bovine serum (FBS) in the cultivation medium, and the relative cell viability (the ratio between cells treated with compounds and cells treated only with DMSO) was determined by CCK-8 kit (Sigma) after 24 h.

[8] = tested on: human synovial cell line SW982; assay: In vitro cell viability, CCK-8; type: cell-based; settings: 10% fetal bovine serum
Method: as §1, §2

[9] = Lipophilicity determination by RP-HPLC (log k, log D); type: physicochemical; settings: for log k: MeOH 72%/H2O 28%; for log D6.5: MeOH 72%/acetate buffered saline pH 6.5; for log D7.4: MeOH 72%/acetate buffered saline pH 7.4
Method: In addition to the mentioned ADME profile, it is responsible for interactions with biological targets. Lipophilicity is recognized as one of the most important parameters influencing ADME and bioactivity and is also part, e.g., of Lipinski’s Rule of Five (Ro5). This thermodynamic parameter describing the molecule’s affinity for an aqueous or relatively lipophilic environment can be characterized by the logarithm of the partition coefficient (log P). In this study, lipophilicity was measured by reversed-phase high-performance liquid chromatography (RP-HPLC) under isocratic conditions with methanol as the organic modifier in the aqueous mobile phase and the logarithm of the capacity factor k was calculated, which is used as the lipophilicity index converted to the log P scale. In addition to the log k values, the logarithm of the distribution coefficient DpH at pH 6.5 and 7.4 was determined to clarify the behavior of the compounds under physiological conditions and possible ionization. Instead of water, a buffer of suitable pH was used as part of the mobile phase. In addition to the above-mentioned experimental methods, commercially available ChemBioDraw Ultra 13.0 and ACD/Percepta ver. 2012 programs were used to calculate the lipophilicity values of all prepared compounds.
A HPLC separation module Waters Alliance 2695 XE equipped with a Waters Dual Absorbance Detector 2486 (Waters Corp., Milford, MA, USA) was used. A chromatographic column Symmetry® C18 5 μm, 4.6 × 250 mm, Part No. W21751W016 (Waters Corp., Milford, MA, USA) was used. The HPLC separation process was monitored by Empower® 3 Chromatography Manager Software (Waters Corp.). Isocratic elution by a mixture of MeOH p.a. (72%) and H2O-HPLC Mili-Q grade (28%) as a mobile phase was used for the determination of capacity factor k. Isocratic elution by a mixture of MeOH p.a. (72%) and acetate buffered saline (pH 7.4 and pH 6.5) (28%) as a mobile phase was used for the determination of distribution coefficient expressed as D7.4 and D6.5. The total flow of the column was 1.0 mL/min, injection 20 μL, column temperature 40 °C, and sample temperature 10 °C. The detection wavelength of 210 nm was chosen. A KI methanolic solution was used for the determination of the dead times (tD). Retention times (tR) were measured in minutes. The capacity factors k were calculated according to the formula k = (tR − tD)/tD, where tR is the retention time of the solute, and tD is the dead time obtained using an unretained analyte. The distribution coefficients DpH were calculated according to the formula DpH = (tR − tD)/tD. Each experiment was repeated three times.

[10] = tested on: methicillin-resistant S. aureus SA 3202; assay: In vitro antistaphylococcal activity, microtitration broth MIC; type: cell-based; settings: Staphylococcus aureus
[11] = M. marinum CAMP 5644, 21 days, read-out: MIC MM
[12] = M. marinum CAMP 5644, read-out: log(1/MIC [M]) MM (converted)
[13] = 24 h, read-out: IC50 MDM 10% FSB
[14] = read-out: log(1/IC50 [M]) MDM 10% FSB (converted)
[15] = 24 h, VRE 368, read-out: log(1/MIC [M]) VRE2 (converted)
[16] = VRE 368, 24 h, read-out: MIC VRE2
[17] = ATCC700084, 72 h, M. smegmatis ATCC 700084, three days, read-out: MIC MS
[18] = ATCC700084, M. smegmatis ATCC 700084, read-out: log(1/MIC [M]) MS (converted)
[19] = read-out: log(1/MIC [M]) VRE3 (converted)
[20] = 10% fetal bovine serum, 24 h, read-out: IC50 THP-1 10% FSB
[21] = 10% fetal bovine serum, read-out: log(1/IC50 [M]) THP-1 10% FSB (converted)
[22] = serum-free medium, 24 h, read-out: IC50 THP-1 SFM
[23] = serum-free medium, read-out: log(1/IC50 [M]) THP-1 SFM (converted)
[24] = 24 h, read-out: IC50 SW982 10% FSB
[25] = read-out: log(1/IC50 [M]) SW982 10% FSB (converted)
[26] = 24 h, MRSA SA 3202, read-out: log(1/MIC [M]) MRSA3 (converted)
[27] = MRSA SA 3202, 24 h, read-out: MIC MRSA3

Row | SMILES | MIC [1, 11] [M] | MIC [1, 12] [M] | IC50 [2, 13] [M] | IC50 [2, 14] [M] | MIC [3, 15] [M] | MIC [3, 16] [M] | MIC [4, 17] [M] | MIC [4, 18] [M] | MIC ([6]; read-out: MIC VRE3) [M] | MIC [6, 19] [M] | IC50 [7, 20] [M] | IC50 [7, 21] [M] | IC50 [7, 22] [M] | IC50 [7, 23] [M] | IC50 [8, 24] [M] | IC50 [8, 25] [M] | log k [9] | log D6.5 [9] | log D7.4 [9] | MIC [10, 26] [M] | further results
1 | O=C(/C=C/c1ccc(Cl)cc1)Nc1cccc(C(F)(F)F)c1 [1i, (2E)-3-(4-Chlorophenyl)-N-[3-(trifluoromethyl)phenyl]prop-2-enamide] | > 0.000786 | > 0.000794 | > 1e-05 | > 1e-05 | > 0.000794 | > 0.000786 | > 0.000786 | > 0.000794 | > 0.000786 | > 0.000794 | > 1e-05 | > 1e-05 | 2.9e-06 ± 1.2e-06 | 2.88e-06 | > 1e-05 | > 1e-05 | 0.8612 | 0.8071 | 0.8105 | 6.17e-06 (≈ 2.01 µg/mL) | antimicrobial activity (in words) [5]: showed activity; MIC [10, 27]: 6.14e-06 M (≈ 2 µg/mL)
2 | O=C(/C=C/c1ccc(Cl)cc1)Nc1cc(Cl)cc(Cl)c1 [1p, (2E)-3-(4-Chlorophenyl)-N-(3,5-dichlorophenyl)prop-2-enamide] | > 0.000783 | > 0.000776 | > 1e-05 | > 1e-05 | > 0.000776 | > 0.000783 | 2.45e-05 (≈ 8 µg/mL) | 2.45e-05 (≈ 8.02 µg/mL) | > 0.000783 | > 0.000776 | > 1e-05 | > 1e-05 | 2.5e-06 ± 1.1e-06 | 2.51e-06 | > 1e-05 | > 1e-05 | 1.1899 | 1.1368 | 1.1366 | 7.59e-07 (≈ 0.248 µg/mL) | antimicrobial activity (in words) [5]: showed activity; MIC [10, 27]: 7.65e-07 M (≈ 0.25 µg/mL)
3 | O=C(/C=C/c1ccc(Cl)cc1)Nc1cc(C(F)(F)F)cc(C(F)(F)F)c1 [1q, (2E)-N-[3,5-bis(Trifluoromethyl)phenyl]-3-(4-chlorophenyl)prop-2-enamide] | > 0.00065 | > 0.000646 | > 1e-05 | > 1e-05 | 0.000324 (≈ 127 µg/mL) | 0.000325 (≈ 128 µg/mL) | 2.54e-06 (≈ 1 µg/mL) | 2.51e-06 (≈ 0.989 µg/mL) | 0.000325 (≈ 128 µg/mL) | 0.000324 (≈ 127 µg/mL) | > 1e-05 | > 1e-05 | 1e-06 ± 1.1e-06 | 1e-06 | > 1e-05 | > 1e-05 | 1.3064 | 1.2925 | 1.2980 | 6.31e-07 (≈ 0.248 µg/mL) | antimicrobial activity (in words) [5]: showed activity; MIC [10, 27]: 6.35e-07 M (≈ 0.25 µg/mL)
4 | O=C(/C=C/c1ccc(Cl)c(Cl)c1)Nc1ccccc1 [2a, (2E)-3-(3,4-Dichlorophenyl)-N-phenylprop-2-enamide] | 0.000876 (≈ 256 µg/mL) | 0.000871 (≈ 254 µg/mL) | > 1e-05 | > 1e-05 | > 0.000871 | > 0.000876 | 1.36e-05 (≈ 3.97 µg/mL) | 1.38e-05 (≈ 4.03 µg/mL) | > 0.000876 | > 0.000871 | > 1e-05 | > 1e-05 | 7.5e-06 ± 1e-06 | 7.59e-06 | > 1e-05 | > 1e-05 | 0.6199 | 0.6669 | 0.6354 | > 0.000871 | MIC [10, 27]: > 0.000876 M
5 | O=C(/C=C/c1ccc(Cl)c(Cl)c1)Nc1cccc(C(F)(F)F)c1 [2i, (2E)-3-(3,4-Dichlorophenyl)-N-[3-(trifluoromethyl)phenyl]prop-2-enamide] | 5.55e-06 (≈ 2 µg/mL) | 5.5e-06 (≈ 1.98 µg/mL) | > 1e-05 | > 1e-05 | 2.24e-05 (≈ 8.06 µg/mL) | 2.22e-05 (≈ 8 µg/mL) | 5.55e-06 (≈ 2 µg/mL) | 5.5e-06 (≈ 1.98 µg/mL) | 4.44e-05 (≈ 16 µg/mL) | 4.47e-05 (≈ 16.1 µg/mL) | > 1e-05 | > 1e-05 | 1.9e-06 ± 1e-06 | 1.91e-06 | > 1e-05 | > 1e-05 | 0.9873 | 0.9915 | 0.9505 | 1.38e-06 (≈ 0.497 µg/mL) | antimicrobial activity (in words) [5]: active; MIC [10, 27]: 1.39e-06 M (≈ 0.501 µg/mL)
